Results reported in patent US6346514B1, “Pharmaceutical lysine-containing polypeptide compositions and methods of use thereof” (priority 1991, dated 2002).

How the values were obtained:
[1] = system: methicillin-resistant S. aureus; experiment: Survival of mice inoculated with 10xLD50 S. aureus, HM897 pretreatment with or without Ampicillin; type: in vivo
Method: As in Example 8, animals were inoculated intraperitoneally with 10×LD50 of a methicillin-resistant S. aureus suspended in brain-heart infusion broth containing 5 percent mucin. Different treatments were administered s.c., i.p., or p.o., one hour later and deaths occurring during the subsequent three days were recorded. If significant prevention of mortality (>50 percent survival) was observed, the minimum effective dose (MED) was determined.
Two control experiments were conducted. HM897 was administered as a pretreatment prior to microbial inoculation, and saline was administered i.p. The number of survivors at 72 hours was determined. […] The number of survivors at 72 hours was recorded.
Survival statistics were determined over the periods of 12, 24, 36, 48, and 72 hours. […] Survival statistics were determined over periods of 12, […], 36, 48, and 72 hours. The method of conducting the experiment is illustrated in FIG. 5.

[2] = system: lymphoid cells in blood, thymus, lymph nodes, spleen and red bone marrow; experiment: Effect on immune system of healthy guinea pigs; type: in vivo
Method: Forty male guinea pigs were used in the following test. Most of the animals were treated daily with a single dose (i.m.) of Thr-Ala-Glu-Glu-Lys (SEQ ID NO:34) (HM897) […] for five days. Control animals were treated with single daily doses of 0.5 ml (i.m.) of normal saline.
Tested parameters: clinical blood examination, non-specific resistance by lysosomal cationic test; “active” T-lymphocytes and total T-lymphocytes (E-RFC), B-lymphocytes (EAC-RFC) were measured in blood, thymus, lymph nodes, spleen and red bone marrow. […] Blood lymphocyte functional activity was evaluated by leukocyte migration inhibition (LMI) with ConA. Histological examinations of thymus, spleen, lymph nodes, bone marrow and adrenals were carried out. All of these indicia were measured on 10th and 20th days after onset of the treatment.

[3] = system: guinea-pig myelokaryocytes; experiment: Colony-forming activity of macrophage precursors; type: cell-based; conditions: tested 1.0 to 0.0000001 microg/ml
Method: This test is designed to study macrophage precursors. Cultured cells used were guinea-pig myelokaryocytes. HM897 was added to cell culture in concentrations 1.0, 0.001, 0.00001 and 0.0000001 microg/ml.

[4] = system: lymphoid cells differentiation; experiment: Effects in thymectomized guinea pigs; type: in vivo; conditions: thymectomized animals; 1 microg per kg i.m. daily for 10 days; 15th day
Method: Model: Thymectomy (removal of thymus): 30 mongrel male guinea pigs. Treatment: i.m. single daily 1 microg HM897 per kg for 10 days. Treatment of controls: normal saline 0.5 ml i.m. single daily for 10 days (there were two controls—thymectomized and sham-operated). Parameters were determined on the 15th day after onset of the treatment. Tested parameters: clinical blood examination, “active” T-lymphocytes and total T-lymphocytes (E-RFC), B-lymphocytes (EAC-RFC) were measured in blood, thymus, lymph nodes, spleen and red bone marrow.

[5] = system: hemodepression induced by 5-fluorouracil; experiment: Hemostimulating effect in 5-fluorouracil-induced hemodepression; type: in vivo, CBA-mice
Method: The test was designed to study hemodepression induced by 5-fluorouracil injected i.p. in a dose 175 mg per kg (172 male CBA-mice). Treatment: peptide HM897 was administered i.p. starting from 4th day after 5-FU injection in doses 0.00001, 0.001, 0.01, 1.0 mg/kg for 5 days. Treatment of controls: normal saline i.p. for 5 days. Tested parameters: peripheral blood count and bone marrow differential count.

[6] = system: hemolytic anemia induced by phenylhydrazine hydrochloride; experiment: Erythropoietic effect in hemolytic phenylhydrazine-induced anemia; type: in vivo, mice; conditions: 3rd day of administration
Method: This test was designed to study posthemorrhagic anemia (acute blood loss caused by taking blood from retroorbital sinus), and hemolytic anemia induced by phenylhydrazine hydrochloride (120 mg active ingredients/kg 30 Balb/c-mice and 30 CBA-mice). HM897 was injected intraperitoneally in doses of 100 and 150 microg per kg, 3 hours and 1 day after intervention modelling anemia, for 5 days. Tester parameters: RBC, leukocytes, reticulocytes, Hb, Hct

[7] = system: trypsinized thymocytes; experiment: Restoration of rosette-forming capacity (E-RFC) of trypsinized thymocytes; type: cell-based, guinea-pig; conditions: concentration 10 microg/ml (most active of 1, 10, 100)
Method: Model: A. This work was designed to study the restoration of superficial receptors on lymphocytes after proteolytic digestion or after severe secondary immunodeficiency. Thymocytes obtained from guinea-pig were trypsinized and then their rosette-forming capacity with rabbit erythrocytes (E-RFC) was evaluated. The cells were incubated with the peptide in concentrations 1, 10 and 100 microg/ml. There were two controls—intact thymocytes (not trypsinized) and trypsinized thymocytes not incubated with the peptide.

[8] = 12 HOURS after inoculation, HM897 10 mcg/kg
[9] = 12 HOURS after inoculation, HM897 100 mcg/kg
[10] = 12 HOURS after inoculation, HM897 1000 mcg/kg
[11] = 24 HOURS after inoculation, HM897 10 mcg/kg
[12] = 24 HOURS after inoculation, HM897 100 mcg/kg
[13] = 24 HOURS after inoculation, HM897 1000 mcg/kg
[14] = 36 HOURS after inoculation, HM897 10 mcg/kg
[15] = 36 HOURS after inoculation, HM897 100 mcg/kg
[16] = 36 HOURS after inoculation, HM897 1000 mcg/kg
[17] = 48 HOURS after inoculation, HM897 10 mcg/kg
[18] = 48 HOURS after inoculation, HM897 100 mcg/kg
[19] = 48 HOURS after inoculation, HM897 1000 mcg/kg
[20] = 72 HOURS after inoculation, HM897 10 mcg/kg
[21] = 72 HOURS after inoculation, HM897 100 mcg/kg
[22] = 72 HOURS after inoculation, HM897 1000 mcg/kg

Q: Thr-Ala-Glu-Glu-Lys (TAEEK) [HM897] was tested. Which Deaths [1, 8] did it give?
A: The Deaths was 0.

Q: And the Survival [1, 8]?
A: Its Survival is 100.00%.

Q: What about the Survivors [1, 8] of the same substance?
A: The Survivors was 18.

Q: And the Deaths [1, 9]?
A: The Deaths was 0.

Q: What about the Survival [1, 9] of the same substance?
A: The Survival was 100.00%.

Q: And the Survivors [1, 9]?
A: The Survivors was 18.

Q: And the Deaths [1, 10]?
A: The Deaths was 1.

Q: What about the Survival [1, 10] of the same substance?
A: Its Survival is 94.44%.

Q: What about the Survivors [1, 10] of the same substance?
A: Its Survivors is 17.

Q: What about the Deaths [1, 11] of the same substance?
A: Its Deaths is 5.

Q: What about the Survival [1, 11] of the same substance?
A: The Survival was 72.22%.

Q: What about the Survivors [1, 11] of the same substance?
A: The Survivors was 13.

Q: And the Deaths [1, 12]?
A: The Deaths was 3.

Q: What about the Survival [1, 12] of the same substance?
A: The Survival was 83.33%.

Q: And the Survivors [1, 12]?
A: Its Survivors is 15.

Q: What about the Deaths [1, 13] of the same substance?
A: The Deaths was 2.

Q: And the Survival [1, 13]?
A: The Survival was 88.89%.

Q: What about the Survivors [1, 13] of the same substance?
A: The Survivors was 16.

Q: What about the Deaths [1, 14] of the same substance?
A: Its Deaths is 12.

Q: And the Survival [1, 14]?
A: Its Survival is 33.33%.

Q: What about the Survivors [1, 14] of the same substance?
A: Its Survivors is 6.

Q: And the Deaths [1, 15]?
A: The Deaths was 8.

Q: What about the Survival [1, 15] of the same substance?
A: The Survival was 55.56%.

Q: What about the Survivors [1, 15] of the same substance?
A: Its Survivors is 10.

Q: What about the Deaths [1, 16] of the same substance?
A: The Deaths was 7.

Q: And the Survival [1, 16]?
A: The Survival was 61.11%.

Q: What about the Survivors [1, 16] of the same substance?
A: Its Survivors is 11.

Q: What about the Deaths [1, 17] of the same substance?
A: The Deaths was 14.

Q: What about the Survival [1, 17] of the same substance?
A: The Survival was 22.22%.

Q: And the Survivors [1, 17]?
A: Its Survivors is 4.

Q: And the Deaths [1, 18]?
A: Its Deaths is 12.

Q: And the Survival [1, 18]?
A: Its Survival is 33.33%.

Q: What about the Survivors [1, 18] of the same substance?
A: The Survivors was 6.

Q: What about the Deaths [1, 19] of the same substance?
A: Its Deaths is 11.

Q: And the Survival [1, 19]?
A: The Survival was 38.89%.

Q: What about the Survivors [1, 19] of the same substance?
A: The Survivors was 7.

Q: What about the Deaths [1, 20] of the same substance?
A: The Deaths was 14.

Q: And the Survival [1, 20]?
A: Its Survival is 22.22%.

Q: What about the Survivors [1, 20] of the same substance?
A: Its Survivors is 4.

Q: And the Deaths [1, 21]?
A: The Deaths was 12.

Q: And the Survival [1, 21]?
A: The Survival was 33.33%.

Q: And the Survivors [1, 21]?
A: Its Survivors is 6.

Q: What about the Deaths [1, 22] of the same substance?
A: Its Deaths is 11.

Q: What about the Survival [1, 22] of the same substance?
A: Its Survival is 38.89%.

Q: And the Survivors [1, 22]?
A: Its Survivors is 7.

Q: And the “survival after normally lethal i.p. dose of S. aureus” value ([1]; HM897 pretreatment)?
A: Its value is “dramatic improvement in survival”.

Q: And the “Survival” value ([1]; at 36 hours, across HM897 dose groups)?
A: Its value is no more than 61%.

Q: What about the “Survival” value ([1]; by 72 hours, across HM897 dose groups) of the same substance?
A: Its value is 22-39%.

Q: What about the lymphocyte stimulation ([2]; 10th day) of the same substance?
A: Its lymphocyte stimulation is “predominant T-lymphocyte stimulation”.

Q: And the “mitotic activity in lymph nodes, spleen and bone marrow” value ([2]; 10th day after onset of administration)?
A: Its value is “increased level of mitotic activity”.

Q: And the lymphocyte stimulation ([2]; 20th day)?
A: Its lymphocyte stimulation is “both T- and B-lymphocytes”.

Q: What about the “lymphoid cells proliferation and differentiation in thymus and bone marrow” value ([2]; healthy guinea pigs, i.m. single daily dose for five days) of the same substance?
A: The value was “stimulates lymphoid cells proliferation and differentiation in thymus and bone marrow”.

Q: What about the “concentration from which macrophage precursors colony-forming activity is stimulated” value [3] of the same substance?
A: Its value is no less than 0.0000001 µg/mL.

Q: What about the lymphoid cells differentiation [4] of the same substance?
A: The lymphoid cells differentiation was “does not stimulate lymphoid cells differentiation”.

Q: What about the restoration of hemopoiesis ([5]; 5-FU hemodepression, CBA-mice) of the same substance?
A: Its restoration of hemopoiesis is “promotes active restoration of hemopoiesis”.

Q: And the “dose from which the peptide was active” value ([5]; i.p. for 5 days from 4th day after 5-FU 175 mg per kg)?
A: Its value is no less than 1 µg/kg.

Q: And the erythrocytes [6]?
A: The erythrocytes was 7.2 mln/ml.

Q: What about the “biological activity (percentage of rosette-forming capacity restoration)” value [7] of the same substance?
A: Its value is 78/9.
